Values quoted from earlier work as cited in US20070197592A1, “Use of Paliperidone for the Treatment of Substance Abuse” (priority 2005, published 2007).

Assays:
animals = conditions: cited from earlier work; for water or food consumption: at the same time as the inhibition of alcohol consumption
golden hamster = conditions: cited from earlier work

Row | Compound | water or food consumption (animals) | alcohol consumption (animals) | alcohol drinking (golden hamster) | water or food intake (golden hamster)
1 | O=C1CC[C@@]2(O)[C@H]3Cc4ccc(O)c5c4[C@@]2(CCN3CC2CC2)[C@H]1O5 [naltrexone] | impaired water or food consumption | inhibit alcohol consumption |  | 
2 | CN[C@H]1CC[C@@H](c2ccc(Cl)c(Cl)c2)c2ccccc21 [sertraline] | impaired water or food consumption | inhibit alcohol consumption |  | 
3 | C=CCN1CC[C@]23c4c5ccc(O)c4O[C@H]2C(=O)CC[C@@]3(O)[C@H]1C5 [naloxone] | impaired water or food consumption | inhibit alcohol consumption |  | 
4 | O=c1c(-c2ccc(O)cc2)coc2cc(O[C@@H]3O[C@H](CO)[C@@H](O)[C@H](O)[C@H]3O)ccc12 [Daidzin] |  |  | decreases alcohol drinking | without producing a decrease in water or food intake
